Measured values taken from patent US7829332B2, “Purines are self-renewal signals for neural stem cells, and purine receptor antagonists promote neuronal and glial differentiation therefrom” (Cornell Research Foundation, Inc., priority 2004, dated 2010).

Key:
Format in all cases: cell-based, mouse
neural progenitor cells = test: Calcium imaging (fluo-4/am) of Ca2+i responses in 1-2 day cultures; conditions: for increase of Ca2+i by purine receptor agonists: 1-2 day cultures; for effect of removal of extracellular Ca2+ on the Ca2+ response to the agonist: extracellular Ca2+ removed
Procedure: Neuronal cultures were prepared from E16 mice and maintained as earlier described (Nedergaard, M., Science 263:1768-1771 (1994), which is hereby incorporated by reference in its entirety). Cytosine arabinoside (20 μM) was added at 48 hr to eliminate proliferating cells. Neural progenitor cells were isolated from E13 mice as previously described (Morshead et al., Neuron 13:1071-82 (1994); Reynolds et al., Science 255:1707-10 (1992), which are hereby incorporated by reference in their entirety). The forebrains were collected in a Ca/Mg-free Hank's buffered saline solution (HBSS) and dissociated in 0.25% trypsin. The cells were resuspended at 4×10^6 cells/ml in DMEM/F12/N2 containing 10 ng/ml bFGF and 10 ng/ml EGF (Sigma, St. Louis, Mo.). The cells were plated at 4 ml/dish into 100 mm suspension culture plates and incubated at 37° C. in 5% CO2. The cells were passaged 2 to 3 times before use.
To test the idea that purinergic signaling is restricted to undifferentiated neural precursor cells, Ca^2+ responses to ATP were first examined as a function of time after plating either neural stem cells or differentiated neurons. Cultured mouse cortical neurons in near-pure neuronal cultures were loaded with fluo-4/am and exposed to either ATP (100 μM) or K^+ (60 mM). […] The responses to ATP fell by day 3 and were absent 9 days after plating. […] By 30 hours after plating, MAP2-defined neurons expressed substantially less P2Y receptor-immunoreactivity than did neighboring, MAP2^− cells (FIG. 1C). By 5 days, P2Y-immunoreactivity was restricted to GFAP^+ astrocytes.
ATP-induced Ca^2+i increments were inhibited by both suramin (100 μM) and reactive blue (RB; 30 μM), two mechanistically-unrelated inhibitors of purinergic signaling (FIG. 1D).

neural stem cells = test: BrdU incorporation assay (mitotic index); conditions: 4 hrs incubation
Procedure: For the BrdU incorporation assay, the cultures were incubated for 4 hrs in BrdU (Sigma, 10 μg/ml, 4 hrs), fixed and stained with rat monoclonal anti-BrdU (MAS250C, Harlan Sera-lab, Loughborough, UK; 1:200) and Cy3-conjugated goat anti-rat antibodies (Jackson ImmunoResearch, 1:300). Nuclei were visualized by Sytox (Molecular Probes, Inc.), and the mitotic index was calculated as the ratio of BrdU/Sytox positive nuclei. Limiting dilution analysis was performed as previously described (Keyoung et al., Nature Biotechnology 19:843-850 (2001); Uchida et al., Proc. Natl. Acad. Sci. 97:14720-14725 (2000), which are hereby incorporated by reference in their entirety).
Purinergic signaling has long-term effects on proliferation of numerous cell types, including rapidly replicating transformed cell lines (Burnstock, G., Arterioscler Thromb Vasc Biol 22:364-73 (2002); Michoud et al., Am J Respir Cell Mol Biol 27:732-8 (2002); Sauer et al., J Cell Sci 115:3265-73 (2002); Tu et al., Br J Pharmacol 129:1481-9 (2000), which are hereby incorporated by reference in their entirety). To better define the mitogenic effects of P2Y on neural progenitor cells, the mitogenic effects of ATP, its analogs, and its dephosphorylated metabolites were compared. To this end, BrdU incorporation by neural stem cells was quantified after 4 hrs incubation in each treatment.

[1] = system: neuroepithelial cells / neural spheres; test: ATP release, luciferin-luciferase bioluminescence
Procedure: ATP release from living cells were dynamically imaged by chemiluminescence as described in (Arcuino et al., Proc Natl Acad Sci USA 99:9840-5 (2002), which is hereby incorporated by reference in its entirety). Neural spheres were after a light spin resuspended in Ringer's solution and mounted in a temperature controlled Leiden chamber. Luciferase (0.132 mg/ml) and luciferin (0.332 mg/ml) was added to the Ringer solution. After obtaining a baseline recording of 5 minutes duration, the cultures were stimulated by adding an equal volume of Ca^2+-free Ringer solution containing 100 μM UTP. Light production from the luciferin-luciferase reaction was imaged by a liquid nitrogen-cooled CCD camera (VersArray 1300B, Princeton Instruments), using a 20× oil lens (N.A. 0.8, Olympus), 8×8 binning, and two seconds integration. ATP content in samples collected from cultures grown in 24-well tissue culture plates was measured using a Victor2 plate reader (Wallac) (Cotrina et al., Proc. Natl. Acad. Sci. 95:15735-15740 (1998), which is hereby incorporated by reference in its entirety) and normalized to the protein content (BioRad) or to the cell number. A minimum of 8 independent experiments was evaluated (n≧8, most >20). When drugs or serum were used, the standards were adjusted to containing an equivalent amount. […]

Molecule | increase of Ca2+i by purine receptor agonists (neural progenitor cells) | proliferation (BrdU incorporation) (neural stem cells) | also measured
Nc1nc(Cl)nc2c1ncn2[C@@H]1O[C@H](COP(=O)(O)OP(=O)(O)OP(=O)(O)O)[C@@H](O)[C@H]1O [2-Cl-ATP, 2-chloro-adenosine triphosphate] | increased Ca^2+i with roughly equal potency | comparable effects | –
CSc1nc(N)c2ncn([C@@H]3O[C@H](COP(=O)(O)OP(=O)(O)OP(=O)(O)O)[C@@H](O)[C@H]3O)c2n1 [2-MeSATP, 2-methylthio-adenosine triphosphate] | increased Ca^2+i with roughly equal potency | – | effect of removal of extracellular Ca2+ on the Ca2+ response to the agonist (neural progenitor cells): did not significantly decrease
Nc1ncnc2c1ncn2[C@@H]1O[C@H](COP(=O)(O)OP(=O)(O)O)[C@@H](O)[C@H]1O [ADP, adenosine diphosphate] | increased Ca^2+i with roughly equal potency | comparable effects | –
Nc1ncnc2c1ncn2[C@@H]1O[C@H](COP(=O)(O)CP(=O)(O)O)[C@@H](O)[C@H]1O [AMPCP, α,β-methyl adenosine diphosphate] | – | potently enhanced | –
Nc1ncnc2c1ncn2[C@@H]1O[C@H](COP(=O)(O)OP(=O)(O)OP(=O)(O)O)[C@@H](O)[C@H]1O [ATP, adenosine triphosphate] | increased Ca^2+i with roughly equal potency | increased proliferation in a dose-dependent manner | Ca2+ response (neural progenitor cells; 100 μM, cultures younger than 2 days in vitro): Transient increments in Ca^2+ were triggered; effect of removal of extracellular Ca2+ on the Ca2+ response to the agonist (neural progenitor cells): did not significantly decrease; concentration at which proliferation peaked (neural stem cells): 100 µM
CCNC(=O)[C@H]1O[C@@H](n2cnc3c(N)ncnc32)[C@H](O)[C@@H]1O [NECA] | – | failed to stimulate proliferation | –
O=c1ccn([C@@H]2O[C@H](COP(=O)(O)OP(=O)(O)OP(=O)(O)O)[C@@H](O)[C@H]2O)c(=O)[nH]1 [UTP, uridine triphosphate] | increased Ca^2+i with roughly equal potency | comparable effects | ATP release from neural spheres, bioluminescence imaging ([1]; 100 μM, neural spheres): frequent point-source bursts of light emission; ATP release evoked by purine receptor activation ([1]; neuroepithelial cells, first 2 days in vitro): evoked robust ATP release
Nc1ncnc2c1ncn2[C@@H]1O[C@H](CO)[C@@H](O)[C@H]1O [adenosine] | – | failed to stimulate proliferation | –
Nc1ncnc2c1ncn2[C@@H](C=O)O[C@@H](C=O)COP(=O)(O)OP(=O)(O)OP(=O)(O)O [oxidized ATP, periodate oxidized adenosine 5′-triphosphate] | – | – | reduction of ATP-evoked Ca2+ responses (neural progenitor cells; 300 μM, 1 hr, p=0.4, Student's t test): did not significantly reduce
Nc1ncnc2c1ncn2[C@@H]1O[C@H](COP(=O)(O)CP(=O)(O)OP(=O)(O)O)[C@@H](O)[C@H]1O [αβATP] | failed to evoke Ca^2+ responses | – | –
Nc1ncnc2c1ncn2[C@@H]1O[C@H](COP(=O)(O)OP(=O)(O)OP(O)(O)=S)[C@@H](O)[C@H]1O [γSATP, γ-thio-adenosine triphosphate] | increased Ca^2+i with roughly equal potency | comparable effects | –
apyrase | – | inhibited proliferation | –
